Toxic doses and inconclusive results are not listed.
Test system: CD2F1 mice, L1210 leukemia ip, survival T/C
Assay: NCI In Vivo Anticancer Drug Screen. Data for tumor model L1210 Leukemia (intraperitoneal) in CD2F1 (CDF1) mice
Details: endpoint: mean survival time, higher = longer survival
Procedure, shortened: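 Mice carrying a transplanted tumor received test compound or vehicle alone. The value is the measurement in the treated group divided by that in the vehicle-treated control group.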

[1] = dose: 50.0 mg/kg/injection, schedule: Q01DX009 (ip), vehicle: saline with Tween-80
[2] = dose: 100.0 mg/kg/injection, schedule: Q01DX009 (ip), vehicle: saline with Tween-80
[3] = dose: 75.0 mg/kg/injection, schedule: Q01DX001 (ip), vehicle: saline
[4] = dose: 150.0 mg/kg/injection, schedule: Q01DX001 (ip), vehicle: saline
[5] = dose: 100.0 mg/kg/injection, schedule: Q04DX003 (ip), vehicle: saline with Tween-80
[6] = dose: 200.0 mg/kg/injection, schedule: Q04DX003 (ip), vehicle: saline with Tween-80
[7] = dose: 400.0 mg/kg/injection, schedule: Q04DX003 (ip), vehicle: saline with Tween-80
[8] = dose: 100.0 mg/kg/injection, schedule: Q01DX001 (ip), vehicle: saline with Tween-80
[9] = dose: 200.0 mg/kg/injection, schedule: Q01DX001 (ip), vehicle: saline with Tween-80
[10] = dose: 400.0 mg/kg/injection, schedule: Q01DX001 (ip), vehicle: saline with Tween-80

In the case of `C#CC1(OC(=O)Nc2ccccc2)CCCCC1`, the T/C (dose: 100.0 mg/kg/injection, schedule: Q04DX002 (ip), vehicle: saline with Tween-80) is reported as 100 % of control and the T/C (dose: 200.0 mg/kg/injection, schedule: Q04DX002 (ip), vehicle: saline with Tween-80) is reported as 92 % of control.
In the case of `CSc1ccc(NC(=O)N(CCCl)N=O)cc1`, the T/C (dose: 2.3 mg/kg/injection, schedule: Q01DX001 (ip), vehicle: other) is reported as 121 % of control and the T/C (dose: 3.5 mg/kg/injection, schedule: Q01DX001 (ip), vehicle: other) is reported as 122 % of control.
For `CCOC(=O)C(N)CSCc1ccccc1` (centres undefined), the T/C (dose: 100.0 mg/kg/injection, schedule: Q04DX003 (ip), vehicle: saline) was 103 % of control, the T/C (dose: 200.0 mg/kg/injection, schedule: Q04DX003 (ip), vehicle: saline) was 97 % of control and the T/C (dose: 400.0 mg/kg/injection, schedule: Q04DX003 (ip), vehicle: saline) was 101 % of control.
With `CC(C)(CCC(=O)O)c1cccc(Cl)c1` the T/C [1] was 96 % of control and the T/C [2] was 93 % of control.
In the case of `COc1cc2ccc(-c3cc(C(=O)O)c4ccccc4n3)cc2cc1OC`, the T/C [3] is reported as 93 % of control and the T/C [4] is reported as 93 % of control.
`CC1(C)N=C(N)N=C(N)N1c1cccc(/C=C/c2ccc([N+](=O)[O-])cc2)c1` was tested, and the T/C (dose: 100.0 mg/kg/injection, schedule: Q04DX002 (ip), vehicle: Klucel (hydroxypropylcellulose) (HPC)) was 103 % of control, the T/C (dose: 200.0 mg/kg/injection, schedule: Q04DX002 (ip), vehicle: Klucel (hydroxypropylcellulose) (HPC)) was 107 % of control and the T/C (dose: 400.0 mg/kg/injection, schedule: Q04DX002 (ip), vehicle: Klucel (hydroxypropylcellulose) (HPC)) was 95 % of control.
`CC(=O)OCC1OC(n2c(Cl)nc3c(Cl)nc(N)nc32)C(OC(C)=O)C1OC(C)=O` (centres undefined) was tested, and the T/C (dose: 100.0 mg/kg/injection, schedule: Q01DX001 (ip), vehicle: saline) was 100 % of control, the T/C (dose: 200.0 mg/kg/injection, schedule: Q01DX001 (ip), vehicle: saline) was 100 % of control and the T/C (dose: 400.0 mg/kg/injection, schedule: Q01DX001 (ip), vehicle: saline) was 97 % of control.
`CN(C)CCC(=O)C(c1ccccc1)c1ccccc1` was tested, and the T/C [3] was 97 % of control and the T/C [4] was 101 % of control.
For `Nc1ccc2scnc2c1`, the T/C [5] was 108 % of control, the T/C [6] was 96 % of control and the T/C [7] was 101 % of control.
For `CCCCCCC(C/C=C\CCCCCCCC(=O)OC)OC(C)=O` (centres undefined), the T/C [5] was 101 % of control, the T/C [6] was 101 % of control and the T/C [7] was 97 % of control.
In the case of `Cc1cc(NC(=O)NC/C(Cl)=C/Cl)c2ccccc2n1`, the T/C [8] is reported as 93 % of control, the T/C [9] is reported as 93 % of control and the T/C [10] is reported as 98 % of control.
`CCCCCCCCCCCC(C)(O)C#N` (centres undefined) was tested, and the T/C (dose: 100.0 mg/kg/injection, schedule: Q04DX002 (ip), vehicle: saline) was 96 % of control, the T/C (dose: 200.0 mg/kg/injection, schedule: Q04DX002 (ip), vehicle: saline) was 92 % of control and the T/C (dose: 400.0 mg/kg/injection, schedule: Q04DX002 (ip), vehicle: saline) was 100 % of control.
With `CC1(C)Oc2ccccc2O1` the T/C (dose: 25.0 mg/kg/injection, schedule: Q01DX009 (ip), vehicle: saline with Tween-80) was 106 % of control, the T/C [1] was 102 % of control and the T/C [2] was 93 % of control.
In the case of `N#CNC(N)=O`, the T/C (dose: 100.0 mg/kg/injection, schedule: Q01DX009 (ip), vehicle: saline sonified) is reported as 102 % of control, the T/C (dose: 200.0 mg/kg/injection, schedule: Q01DX009 (ip), vehicle: saline sonified) is reported as 96 % of control and the T/C (dose: 400.0 mg/kg/injection, schedule: Q01DX009 (ip), vehicle: saline sonified) is reported as 100 % of control.
In the case of `O=C1OC(=O)C2=C1C1C3C=CCC3C2N2C=CC=CC12` (centres undefined), the T/C (dose: 100.0 mg/kg/injection, schedule: Q01DX001 (ip), vehicle: Klucel (hydroxypropylcellulose) (HPC)) is reported as 105 % of control and the T/C (dose: 200.0 mg/kg/injection, schedule: Q01DX001 (ip), vehicle: Klucel (hydroxypropylcellulose) (HPC)) is reported as 93 % of control.
For `FC(F)(F)c1nn[nH]n1`, the T/C (dose: 100.0 mg/kg/injection, schedule: Q01DX009 (ip), vehicle: saline) was 100 % of control, the T/C (dose: 200.0 mg/kg/injection, schedule: Q01DX009 (ip), vehicle: saline) was 104 % of control and the T/C (dose: 400.0 mg/kg/injection, schedule: Q01DX009 (ip), vehicle: saline) was 98 % of control.
With `O=C(NCCCl)NC1C(O)C(O)C(O)C(O)C1O` (centres undefined) the T/C [8] was 104 % of control, the T/C [9] was 98 % of control and the T/C [10] was 98 % of control.
For `C[N+]1(C)CCc2cc(O)c(O)cc2C1Cc1ccc(O)c(O)c1` (centres undefined), the T/C [3] was 102 % of control.
In the case of `Cc1csc2[nH]c(=O)[nH]c(=O)c12`, the T/C [5] is reported as 96 % of control, the T/C [6] is reported as 94 % of control and the T/C [7] is reported as 87 % of control.
In the case of `CC(=O)NNC(=O)c1ccc(N(C)C)cc1`, the T/C (dose: 12.5 mg/kg/injection, schedule: Q01DX009 (ip), vehicle: other) is reported as 92 % of control, the T/C (dose: 25.0 mg/kg/injection, schedule: Q01DX009 (ip), vehicle: other) is reported as 88 % of control and the T/C (dose: 50.0 mg/kg/injection, schedule: Q01DX009 (ip), vehicle: other) is reported as 88 % of control. The T/C (dose: 100.0 mg/kg/injection, schedule: Q01DX009 (ip), vehicle: other) was 92 % of control and the T/C (dose: 200.0 mg/kg/injection, schedule: Q01DX009 (ip), vehicle: other) was 92 % of control.
